Experimental data taken from PMC9841524, “Structure-Based Rational Design of Small α-Helical Peptides with Broad-Spectrum Activity against Multidrug-Resistant Pathogens” (Journal of Medicinal Chemistry, 2022).
Read-outs that look alike come from different tables or passages of the source. Where no end group is shown, it is not given here.

Assays:
S. aureus (ATCC 29213) = assay: MIC, standard microtiter dilution (CLSI); type: cell-based; details: for MIC, S. aureus (ATCC 29213): broth microdilution (CLSI), CAMHB, 37 °C, 24 h
How it was run: (§1)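 Inoculum 10^6 CFU/mL in CAMHB against 2-fold peptide series; salt variants used 150 mM NaCl, 4.5 mM KCl, 6 mM NH4Cl, 1 mM MgCl2, 2 mM CaCl2, or 25% FBS.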

E. coli (ATCC 25922) = details: broth microdilution (CLSI), CAMHB, 37 °C, 24 h
How it was run: as §1

MRSA (ATCC BAA-1556) = details: broth microdilution (CLSI), CAMHB, 37 °C, 24 h
How it was run: as §1

[1] = system: P. aeruginosa (ATCC 27883); assay: MIC, standard microtiter dilution (CLSI); type: cell-based, Pseudomonas aeruginosa; details: broth microdilution (CLSI), CAMHB, 37 °C, 24 h
How it was run: as §1

[2] = system: K. pneumoniae (ATCCBAA-1705); assay: MIC, standard microtiter dilution (CLSI); type: cell-based, Klebsiella pneumoniae; details: broth microdilution (CLSI), CAMHB, 37 °C, 24 h
How it was run: as §1

[3] = system: human red blood cells (hRBCs); assay: Hemolytic assay; type: cell-based; details: 2 h, 37 °C
How it was run: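 Percent hemolysis uses PBS as 0% and 1% Triton X-100 as 100% references, from supernatant absorbance at 567 nm. Red cells (4% in PBS, equal volume) exposed 2 h at 37 °C without agitation to 2-fold serially diluted peptide.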

[4] = Relative hydrophobicity as RP-HPLC retention time; type: physicochemical; details: chromatographic, Phenomenex Luna C18 4 μm 150 × 4.6 mm, linear AB gradient 1% acetonitrile/min, 0.3 mL/min, A water 0.1% TFA, B acetonitrile 0.1% TFA, 25 °C
Protocol: The purity analysis of the peptides was conducted on a RP-HPLC system (Shimadzu; LC-20ADXR) by using a Phenomenex (Luna) analytical C18 column (4 μm, 150 × 4.6 mm). The mass of the purified peptides was determined in the positive-ion mode using Q-TOF LC/MS (Compass Hystar 4.1, Bruker, USA). The purity (>95%) and mass data of all the synthesized peptides are provided in the Supporting Information.
8. Comparative Hydrophobicity analysis
The purity of all synthesized peptides was determined using reverse phase analytical HPLC
(Shimadzu; LC-20ADXR). Below mentioned are the conditions used to conduct the purity
Column: Phenomenex (Luna), 4 um, C18, 150 × 4.6 mm
Mobile Phase: Buffer A-Water containing 0.1% TFA,
Buffer B-Acetonitrile containing 0.1% TFA
Figure S52. HPLC chromatogram of 6a.
(1 picture or pasted object on this page, not shown here)

[5] = CD spectroscopy, helicity; type: physicochemical; parameters: key to Δ[θ]222 induced by TFE / Δ[θ]222 induced by Liposomes: mean residue molar ellipticity, mdeg cm2/(dmol × res); details: for [θ]222 mean residue molar ellipticity, TFE / [θ]222 mean residue molar ellipticity, Liposomes / [θ]222 mean residue molar ellipticity, PBS: CD at 222 nm, 25 °C; for [θ]222 mean residue molar ellipticity, TFE: aqueous buffer containing 50% TFE; for [θ]222 mean residue molar ellipticity, Liposomes / Δ[θ]222 induced by Liposomes: bacterial membrane mimicking liposomes; for [θ]222 mean residue molar ellipticity, Liposomes: peptide:lipid molar ratio 1:1.05; for [θ]222 mean residue molar ellipticity, PBS: phosphate buffer saline pH 7.0; for Δ[θ]222 induced by TFE / Δ[θ]222 induced by Liposomes: difference to PBS; for Δ[θ]222 induced by TFE: 50% TFE; for % of helicity induced by TFE: increase in molar ellipticity at 222 nm in the presence of 50% TFE; for % of helicity induced by Liposomes: increase in molar ellipticity at 222 nm in the presence of liposomes;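 as to % of helicity induced by Liposomes: share of the total helicity with liposomes gained over the same peptide in PBS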;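 as to % of helicity induced by TFE: share of the total helicity in TFE gained over the same peptide in PBS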
Protocol: The CD spectra of peptides were recorded using a Jasco J-1500 CD spectrophotometer (Jasco, Easton, MD) at 25 °C with a 1 mm path length cell. Wavelengths from 190 to 260 nm were scanned with 1.0 nm step resolution, 100 nm/min speed, 0.4 s response time, and 1 nm bandwidth. CD spectra of the peptides were collected and averaged over three scans in 10 mM sodium phosphate buffer (pH 7.2), helix-inducing solvent 50% TFE (v/v), and bacterial mimic liposomes (75 μM lipid). Spectra were corrected by subtracting a baseline spectrum containing only buffer or 50% TFE or liposomes. The mean residue molar ellipticity was calculated using the formula [drawing 3] where Ab222 is the absorbance observed at 222 nm, MRW is the mean residue molecular weight, C is the concentration in mg/mL, and L is the path length.
Table S1. RP-HPLC retention times and CD spectroscopy analysis of the selected peptides Peptide tR (min)a [θ]222b Δ[θ]222 induced by % of helicity inducedc by PBS TFE Liposomes TFE Liposomes TFE Liposomes […]
atR (min) denotes the retention time at 25°C by RP-HPLC. bThe mean residue molar ellipticity [θ] 222 (mdeg cm2/(dmol × res)) at 222 nm was measured at 25 °C in phosphate buffer saline (PBS, pH 7.0), in aqueous buﬀer containing 50% TFE (TFE), or in presence of bacterial membrane mimicking liposomes (peptide:lipid […]
c% helix induced is the increase in the molar ellipticity at 222 nm (in percentage) of a peptide in the presence of TFE or liposomes.

[6] = 10^6 CFU/mL, highest MIC of three independent experiments in triplicate
[7] = hRBC suspension 4% in PBS, hemoglobin release at 567 nm, 1% Triton X-100 = 100%
[8] = value in parentheses (μM), hRBC 4% in PBS, 567 nm

Substance | MIC, S. aureus (ATCC 29213) (S. aureus (ATCC 29213); [6]) [mg/L] | MIC, S. aureus (ATCC 29213) (S. aureus (ATCC 29213); value in parentheses (μM)) [µM] | MIC, E. coli (ATCC 25922) (E. coli (ATCC 25922); [6]) [mg/L] | MIC, E. coli (ATCC 25922) (E. coli (ATCC 25922); value in parentheses (μM)) [µM] | MIC, MRSA (ATCC BAA-1556) (MRSA (ATCC BAA-1556); [6]) [mg/L] | MIC, MRSA (ATCC BAA-1556) (MRSA (ATCC BAA-1556); value in parentheses (μM)) [µM] | MIC, P. aeruginosa (ATCC 27883) [1, 6] [mg/L] | MIC, P. aeruginosa (ATCC 27883) ([1]; value in parentheses (μM)) [µM] | MIC, K. pneumoniae (ATCCBAA-1705) [2, 6] [mg/L] | MIC, K. pneumoniae (ATCCBAA-1705) ([2]; value in parentheses (μM)) [µM] | HC50 (concentration at which 50% hemolysis was observed) [3, 7] [µg/mL] | HC50 (concentration at which 50% hemolysis was observed) [3, 8] [µM] | tR, RP-HPLC retention time (measure of overall hydrophobicity) [4] [min] | [θ]222 mean residue molar ellipticity, TFE [5] | [θ]222 mean residue molar ellipticity, Liposomes [5] | [θ]222 mean residue molar ellipticity, PBS [5] | Δ[θ]222 induced by TFE [5] | Δ[θ]222 induced by Liposomes [5] | % of helicity induced by TFE [5] [%] | % of helicity induced by Liposomes [5] [%] | further results
RWARRWARWWRR-NH2 [6a] | 50 | 27.16 | > 100 | > 54.31 | 50 | 27.16 | 100 | 54.31 | > 100 | > 54.31 | 230 | 124.92 | 30.42 | -13346 mdeg cm2/(dmol × res) | -13245 mdeg cm2/(dmol × res) | -6737 mdeg cm2/(dmol × res) | -6608 | -6508 | 49.51 | 49.13 | MIC against S. aureus (S. aureus (ATCC 29213)): 50 mg/L; increase in helicity in the presence of liposomes, as compared to PBS ([5]; CD): about 50%
Ac-RWIRRWIRWWRR-NH2 [7c] | 6.2 | 3.15 | 12.5 | 6.35 | 6.2 | 3.15 | 6.2 | 3.15 | 25 | 12.70 | 40 | 20.33 | 40.63 | -10279 mdeg cm2/(dmol × res) | -19297 mdeg cm2/(dmol × res) | -3192 mdeg cm2/(dmol × res) | -7087 | -16105 | 68.94 | 83.45 | 
